From patent publication US11512042B2, “Enamine compounds for absorbance of electromagnetic energy” (Commonwealth Scientific and Industrial Research Organisation, priority 2015, dated 2022)

Test: UV absorbance spectrum in solution (λmax, λcrit, extinction coefficients)
Format: physicochemical
Conditions: for λcrit: critical wavelength; for E (1%, 1 cm): mass extinction coefficient; for ε: molar extinction coefficient, in M-1 cm-1 (unit assumed)
Text: FIG. 1 is a graphical representation of the absorbance of compounds 142 and 143 measured in a 10 mm cuvette as 0.001% solutions in methanol (142 is the uppermost trace at peak point of approximately 330 nm); The synthesised benzoyl functionalised compounds and their spectroscopic properties can be seen in table 2 wherein; breakthrough denotes the value in nm where transmittance increases beyond 1%; steepness refers to the distance in nm over which transmittance increases from 1 to 80% (a higher value indicates a less steep transition from absorbing to transmitting and is generally unfavourable); and ^a denotes an average of multiple measurements. As a general comment, it can be noted that the benzoyl substituted compounds gave similar absorbance maxima to the corresponding trifluoroacetyl derivative.

Compound | λmax [nm] | λcrit [nm] | E (1%, 1 cm) | ε
O=C(/C(=C\N1CCCCc2ccccc21)c1ccccc1)C(F)(F)F [Compound 217] | 324 | 359 | 843 | 29114
CCN(/C=C(\C(=O)C(F)(F)F)c1ccccc1)c1ccccc1C [Compound 177] | 320 | 354 | 707 | 23543
O=C(/C(=C\N1CCCc2ccccc21)c1ccccc1)C(F)(F)F [Compound 163] | 354 | 383 | 811 | 26848
O=C(/C(=C\N1CCN(/C=C(/C(=O)C(F)(F)F)c2ccccc2)CC1)c1ccccc1)C(F)(F)F [Compound 195] | 339 | 360 | 689 | 33248
Cc1ccc2c(c1)CCN2/C=C(\C(=O)C(F)(F)F)c1ccccc1 [Compound 205] | 371 | 391 | 1108 | 36692
Cc1cccc2c1N(/C=C(\C(=O)C(F)(F)F)c1ccccc1)CC2 [Compound 199] | 360 | 386 | 975 | 32273
C=CCN(/C=C(\C(=O)C(F)(F)F)c1ccccc1)c1ccccc1 [Compound 172] | 331 | 365 | 673 | 22290
CCN(/C=C(\C(=O)C(F)(F)F)c1ccccc1)c1cccc(Br)c1 [Compound 225] | 332 | 366 | 609 | 24181
O=C(/C(=C\N1CCc2ccccc2C1)c1ccccc1)C(F)(F)F [Compound 194] | 321 | 352 | 687 | 22743
O=C(/C(=C\N1CCc2cc(Br)ccc21)c1ccccc1)C(F)(F)F [Compound 214] | 371 | 390 | 994 | 39265
CCN(CCOC(=O)c1ccc2c(c1)CCN2/C=C(\C(=O)C(F)(F)F)c1ccccc1)C(=O)OC(C)(C)C [Compound 218] | 375 | 391 | 833 | 44357
O=C(/C(=C\N1CCc2cc([N+](=O)[O-])ccc21)c1ccccc1)C(F)(F)F [Compound 206] | 398 | 396 | 1390 | 50315
CCN(/C=C(\C(=O)C(F)(F)F)c1ccccc1)CCOC(=O)c1ccc2c(c1)CCN2/C=C(\C(=O)C(F)(F)F)c1ccccc1 [Compound 226] | 374 | 388 | 685 | 43151
CCN(/C=C(\C(=O)C(F)(F)F)c1ccccc1)c1cccc2ccccc12 [Compound 189] | 324 | 357 | 634 | 23400
CCCCC(CC)COc1ccc(N(/C=C(\C(=O)C(F)(F)F)c2ccccc2)CC)cc1 (stereo not shown) [Compound 220] | 332 | 371 | 532 | 23819
CCOc1ccc(/C(=C/N(CC)c2ccccc2)C(=O)C(F)(F)F)cc1 [Compound 197] | 335 | 369 | 1166 | 42359

Compound | λmax [nm] | λcrit [nm] | E (1%, 1 cm) | ε
O=C(/C(=C\N1CCCN(/C=C(/C(=O)C(F)(F)F)c2ccccc2)CC1)c1ccccc1)C(F)(F)F [Compound 210] | 326 | 356 | 819 | 40611
CCN(/C=C(\C(=O)C(F)(F)C(F)(F)C(F)(F)C(=O)/C(=C\N(CC)c1ccccc1)c1ccccc1)c1ccccc1)c1ccccc1 [Compound 190] | 330 | 370 | 616 | 40027
O=C(/C(=C\N1CCc2cc(F)ccc21)c1ccccc1)C(F)(F)F [Compound 198] | 368 | 389 | 890 | 29804
O=C(/C(=C\N(Cc1ccccc1)c1ccccc1)c1ccccc1)C(F)(F)F [Compound 162] | 329 | 365 | 620 | 23495
CCN(/C=C(\C(=O)C(F)(F)F)c1ccccc1)c1ccc(Br)cc1 [Compound 216] | 332 | 367 | 651 | 25865
O=C(/C(=C\N1CCCCC1)c1ccccc1)C(F)(F)F [Compound 192] | 322 | 353 | 884 | 25028
O=C(/C(=C\N1CCOCC1)c1ccccc1)C(F)(F)F [Compound 209] | 320 | 351 | 855 | 24356
CC1CCc2ccccc2N1/C=C(\C(=O)C(F)(F)F)c1ccccc1 (stereo not shown) [Compound 211] | 350 | 380 | 837 | 28907
CCCN(/C=C(\C(=O)C(F)(F)F)c1ccccc1)c1ccc(N(/C=C(\C(=O)C(F)(F)F)c2ccccc2)CCC)cc1 [Compound 196] | 344 | 378 | 714 | 41997
CN(/C=C(\C(=O)C(F)(F)F)c1ccccc1)c1ccc([N+](=O)[O-])cc1 [Compound 219] | 376 | 391 | 710 | 24860
O=C(/C(=C\N1CCCC1)c1ccccc1)C(F)(F)F [Compound 193] | 323 | 354 | 769 | 20673
Cc1ccccc1N(/C=C(\C(=O)C(F)(F)F)c1ccccc1)c1ccccc1 [Compound 223] | 344 | 377 | 679 | 25885
O=C(/C(=C\N1CCc2ccc([N+](=O)[O-])cc21)c1ccccc1)C(F)(F)F [Compound 202] | 355 | 387 | 903 | 32693
CCN(/C=C(\C(=O)C(F)(F)F)c1ccccc1)c1cccc(C)c1 [Compound 186] | 331 | 367 | 709 | 23605
CCCCC(CC)COc1cccc(N(/C=C(\C(=O)C(F)(F)F)c2ccccc2)CC)c1 (stereo not shown) [Compound 221] | 332 | 366 | 490 | 21876
